Laboratory results published in article PMC8026479 (Cancer Chemotherapy and Pharmacology, 2021).
Read-outs that look alike come from different tables or passages of the source.

Columns and labels:
CD45+/CD3+ lymphocytes = assay: Ex vivo PHA-stimulated lymphocyte proliferation assay (G1T28-1-01); type: in vivo; conditions: Homo sapiens, 96 mg/m2, 4 h after end of infusion, read-out: maximum mean inhibition of proliferation of CD45+/CD3+ lymphocytes
Description: Healthy male and/or female subjects aged 18–60 years, with a body weight of ≥ 50 kg and a body mass index of 18–32 kg/m^2, were enrolled. […] Following a 1-h exposure to EdU, cells were harvested, processed, and analyzed by flow cytometry to measure the percentage of proliferation through EdU + incorporation in CD45 + /CD3 + cells (T lymphocytes).
Two bone marrow samples (one pre-dose and one at 32 h post-dose) were excluded from analysis owing to contamination with peripheral blood. c Relative percentage of total bone marrow cells in the S phase at 24 and 32 h post-trilaciclib dose (n = 10). Data shown are mean ± standard deviation.

[1] = Study G1T28-02 Part 1 plasma PK (with E/P); type: in vivo, human; conditions: ES-SCLC + E/P; for Vd: read-out: Vz; for Tmax: range; for AUC: read-out: AUCtau (AUC0-inf, footnote a)
Excerpt: G1T28-02 (NCT02499770) was a multicentre Phase Ib/IIa study in patients with newly diagnosed ES-SCLC [5]. Eligible patients were aged ≥ 18 years and had histologically or cytologically confirmed ES-SCLC, measurable disease per Response Evaluation Criteria in Solid Tumors (RECIST) version 1.1, an Eastern Cooperative Oncology Group (ECOG) performance status of 0–2, and adequate organ function. […] In the dose-finding Part 1 portion, blood samples for PK analysis were collected at prespecified time points on Cycle 1 Day 1 and Cycle 1 Day 3 (200 mg/m^2 cohort: all patients; 240 mg/m^2 cohort: optional).

[2] = Population PK model with allometric scaling of preclinical and human PK data; design: species or system mouse, rat, dog; conditions: estimated
Excerpt: Owing to the invasive nature of the PD marker collection (i.e. bone marrow aspiration), a semi-mechanistic PK/PD model based on animal PK/PD data and human PK data was developed to guide the selection of an optimal dose level for bone marrow aspiration in humans during dose escalation in the Phase I first-in-human study. The model was constructed using PK data from four species (mouse, rat, dog, and human) and PD data from three species (mouse, rat, and dog; Online Resources 1 and 2).
The model was constructed in two stages. First, preclinical PK data (e.g. doses, routes, and schedule of administration, observed concentrations) were compiled and modeled by allometric scaling. A sequential PK/PD modeling approach (population PK parameters and data approach) was then employed in which a semi-mechanistic PD model with various physiological compartments was created, and specific assumptions entered (Online Resource 3). Traditional forward addition/backward elimination was used for PK modeling. […] Many parameters in this complex model could not be estimated and were fixed either to the literature values or values selected on the basis of discussions with domain experts and sensitivity analysis. In preclinical animal models, the PD analysis modeled bone marrow cells positive for 5′-ethynyl-2′-deoxyuridine (EdU) and peripheral neutrophil counts simultaneously. Although the preclinical animal models could determine the G1 phase, they could not differentiate S, G2, and M phases; cells in these phases will be referred to as “cycling” throughout this manuscript.
Online Resource 1 List of studies used in PK and PD models
Data set Species Administration route Endpoint
BM bone marrow, EdU 5’-ethynyl-2’-deoxyuridine, IP intraperitoneal, IV intravenous, PD pharmacodynamics , PK
pharmacokinetics , PMN polymorphonuclear cell
Online Resource 2 Brief description of animal studies used in PK and PD models
Preclinical pharmacokinetic (PK)/toxicokinetic studies were conducted in mice, rats, and dogs. Data from eight
studies in four species, with a total of 1628 observations from 191 individuals, were used for PK/pharmacodynamic
(PD) modeling. Administration routes included oral, intravenous (IV), and intraperitoneal (IP). The designs of these
studies are described briefly below:
samples were collected from pre dose up to 48 h post dose. In rat toxicology studies, rats received 7-day
PK samples were collected
from pre dose up to 24 h post dose on Day 1 and Day 7.
samples were collected from pre dose up to 30 h post dose.
IV infusion. […]
Online Resource 3 PK/PD model parameters and assumptions
PK model parameters for trilacicliba
Ka (/h) 20.0 (FIXED) Assumptionb
Bioavailability (oral, mouse) 0.62 Estimated
Intercompartment rate constant 15.94 Estimated
Intercompartment clearance K42 0.29 Estimated
Allometric exponent for V 1.00 Estimated
Allometric exponent for CL 1.00 (FIXED) Assumptionc
Additive error 2.00 (FIXED) Assumptiond
Proportional error 0.32 Estimated
PD model parameters for trilaciclib and
Rate constant for BM precursor G 0.04 (FIXED) Assumption e
Rate constant for neutrophils 3.24*E-2 (FIXED) Assumption f
Max effect of G1T28 in the E max 1.00 (FIXED) Assumption g
Concentration of G1T28 with 5.90 Estimated
Feedback slope (/h) 1.00*E-6 (FIXED) Assumptionh
Scale for neutrophils in mice 150 Estimated
Scale for neutrophils in dogs 848 Estimated
EC50 as fraction of baseline value 2.00 Estimated
of persistence effect . Effect is on
transition of S phase cells to G1
Rate constant for stem cell G to 0.51 Estimated
Residual error variance 0.73 Estimated
aPK model parameters for 5 -FU were obtained from the literature
K a could not be estimated and
cThe allometric exponent for CL was estimated to be 0.945 from an earlier model during the model development
process and was fixed to 1 .00 for the purpose of model simplification to avoid overparameterization
dThe additive error was fixed to 20% of the assay LLOQ (10 ng/mL) to decrease the number of parameters to fit […]

[3] = 200 mg/m2, Cycle 1 Day 3 (n = 8), mean
[4] = 240 mg/m2, Cycle 1 Day 1 (n = 1)
[5] = human, plasma, intravenous, 200 mg/m2, Cycle 1 Day 1 (n = 8), mean
[6] = human, plasma, intravenous, 200 mg/m2, Cycle 1 Day 3 (n = 8), mean
[7] = human, plasma, intravenous, 240 mg/m2, Cycle 1 Day 1 (n = 1)
[8] = human, plasma, intravenous, 240 mg/m2, Cycle 1 Day 3 (n = 1)

**Q.** With `CN1CCN(c2ccc(Nc3ncc4cc5n(c4n3)C3(CCCCC3)CNC5=O)nc2)CC1` [trilaciclib] as the molecule, how does the inhibition at 96 mg/m2 (CD45+/CD3+ lymphocytes) read?
**A.** Its inhibition at 96 mg/m2 is 37.2%.

**Q.** And the Cmax [1, 3]?
**A.** The Cmax was 1620 ng/mL.

**Q.** What about the T1/2 [1, 3] of the same molecule?
**A.** Its T1/2 is 9.12 h.

**Q.** What about the AUC(0-inf) [1, 4] of the same molecule?
**A.** Its AUC(0-inf) is 2280 ng·h/mL.

**Q.** And the Cmax [1, 4]?
**A.** The Cmax was 1570 ng/mL.

**Q.** What about the clearance [1, 5] of the same molecule?
**A.** Its clearance is 2500 mL/min.

**Q.** And the AUC(0-inf) ([1]; human, plasma, intravenous, 200 mg/m2, Cycle 1 Day 1 (n = 8), mean, read-out: AUC0-inf)?
**A.** Its AUC(0-inf) is 2560 ng·h/mL.

**Q.** And the Cmax ([1]; human, plasma, intravenous, 200 mg/m2, Cycle 1 Day 1 (n = 8), mean, read-out: Cmax)?
**A.** Its Cmax is 1240 ng/mL.

**Q.** And the Vd [1, 5]?
**A.** Its Vd is 1700 L.

**Q.** What about the Tmax ([1]; human, plasma, intravenous, 200 mg/m2, Cycle 1 Day 1 (n = 8)) of the same molecule?
**A.** The Tmax was 0.45 to 0.98 h.

**Q.** What about the clearance [1, 6] of the same molecule?
**A.** Its clearance is 2230 mL/min.

**Q.** What about the AUC [1, 6] of the same molecule?
**A.** Its AUC is 3110 ng·h/mL.

**Q.** What about the Vd [1, 6] of the same molecule?
**A.** The Vd was 1770 L.

**Q.** And the Tmax ([1]; human, plasma, intravenous, 200 mg/m2, Cycle 1 Day 3 (n = 8))?
**A.** The Tmax was 0.47 to 1 h.

**Q.** What about the clearance [1, 7] of the same molecule?
**A.** The clearance was 3850 mL/min.

**Q.** And the half-life [1, 7]?
**A.** Its half-life is 2.91 h.

**Q.** And the Vd [1, 7]?
**A.** Its Vd is 967 L.

**Q.** What about the clearance [1, 8] of the same molecule?
**A.** The clearance was 3000 mL/min.

**Q.** And the half-life [1, 8]?
**A.** The half-life was 4.03 h.

**Q.** And the AUC [1, 8]?
**A.** The AUC was 2960 ng·h/mL.

**Q.** And the Cmax ([1]; human, plasma, intravenous, 240 mg/m2, Cycle 1 Day 3 (n = 1), read-out: Cmax)?
**A.** The Cmax was 2260 ng/mL.

**Q.** And the Vd [1, 8]?
**A.** The Vd was 1050 L.

**Q.** And the bioavailability ([2]; 150 mg/kg, oral, mouse)?
**A.** The bioavailability was 62%.

**Q.** And the “Intercompartment clearance K24” value [2]?
**A.** Its value is 2.03 h⁻¹.

**Q.** And the “Intercompartment clearance K32” value [2]?
**A.** Its value is 4.42 h⁻¹.

**Q.** What about the “Intercompartment clearance K42” value [2] of the same molecule?
**A.** The value was 0.29 h⁻¹.

**Q.** And the “Intercompartment rate constant K23” value [2]?
**A.** The value was 15.94 h⁻¹.

**Q.** What about the clearance ([2]; mouse, rat, dog, human, three-compartment model, allometric scaling, read-out: CL, PK model (converted)) of the same molecule?
**A.** The clearance was 46.2 mL/min/kg.

**Q.** What about the Vd ([2]; mouse, rat, dog, human, three-compartment model, allometric scaling, read-out: V (central volume of distribution), PK model) of the same molecule?
**A.** Its Vd is 1.32 L/kg.
